Test results: ChEMBL document CHEMBL5223109, “The discovery of BMS-737 as a potent, CYP17 lyase-selective inhibitor for the treatment of castration-resistant prostate cancer” (Bioorg Med Chem Lett, 2022); call rule not given here

Legend:
[1] = Metabolic stability in mouse liver microsomes assessed as parent compound remaining; format: ADME, Microsome
Steroid 21-hydroxylase = target: T1, Steroid 21-hydroxylase (Homo sapiens, UniProt P08686); experiment: Inhibition of human CYP21A2; format: ADME
T1 sequence (P08686 whole entry): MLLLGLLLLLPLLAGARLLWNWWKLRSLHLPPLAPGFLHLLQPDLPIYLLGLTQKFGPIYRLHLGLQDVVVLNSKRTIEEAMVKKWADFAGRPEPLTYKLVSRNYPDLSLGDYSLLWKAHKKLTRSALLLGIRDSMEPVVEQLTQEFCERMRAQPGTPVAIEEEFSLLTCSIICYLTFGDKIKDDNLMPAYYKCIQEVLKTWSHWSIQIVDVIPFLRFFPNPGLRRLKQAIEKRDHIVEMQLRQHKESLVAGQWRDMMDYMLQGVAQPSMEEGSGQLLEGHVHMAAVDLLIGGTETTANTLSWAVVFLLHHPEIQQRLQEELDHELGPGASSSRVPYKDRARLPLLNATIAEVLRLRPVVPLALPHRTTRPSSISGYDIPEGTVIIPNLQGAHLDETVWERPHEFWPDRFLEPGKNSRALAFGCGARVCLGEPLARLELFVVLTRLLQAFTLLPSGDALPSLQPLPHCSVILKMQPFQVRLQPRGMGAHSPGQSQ

[2] = AUC in cynomolgus monkey at 1 mg/kg, po; format: ADME, organism-based, Macaca fascicularis; set-up: dose 1 mg/kg, route po; conditions: in vivo
[3] = target: T2, Steroid 17-alpha-hydroxylase/17,20 lyase (Macaca fascicularis, UniProt Q2XVA1); experiment: In vivo inhibition of CYP17A1 in cynomolgus monkey assessed as change in cortisol level in blood at 1 mg/kg, po measured upto 24 hrs; format: functional, organism-based
T2 sequence (Q2XVA1 whole entry): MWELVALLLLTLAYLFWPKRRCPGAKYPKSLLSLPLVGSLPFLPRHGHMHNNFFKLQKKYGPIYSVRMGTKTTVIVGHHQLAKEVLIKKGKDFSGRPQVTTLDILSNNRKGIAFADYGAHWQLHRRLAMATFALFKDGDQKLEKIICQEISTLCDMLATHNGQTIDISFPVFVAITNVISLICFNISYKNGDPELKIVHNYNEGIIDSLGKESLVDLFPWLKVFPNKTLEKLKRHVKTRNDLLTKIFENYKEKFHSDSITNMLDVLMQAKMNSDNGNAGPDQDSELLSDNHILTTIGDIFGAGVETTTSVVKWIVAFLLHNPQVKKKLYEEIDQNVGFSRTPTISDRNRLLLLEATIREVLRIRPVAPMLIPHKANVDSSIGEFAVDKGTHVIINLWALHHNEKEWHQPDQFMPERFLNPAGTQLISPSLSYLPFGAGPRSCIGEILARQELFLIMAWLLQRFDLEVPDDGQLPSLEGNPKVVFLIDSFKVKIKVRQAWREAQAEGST

Stability [1]: 85%
IC50 (Steroid 21-hydroxylase): > 10 µM
AUC [2]: 26 µM·h
inhibition (INH) [3]: Not Active
SMILES: Nc1ncncc1-c1ccnc2c1cnn2-c1ccc(F)cc1
